Columns and labels:
[1] = system: phenyl-para-quinone induced writhing; assay: Phenyl-para-benzoquinone writhing assay (analgesia); type: in vivo; settings: Mus musculus, mice; for ED50: sc, subcutaneous dose at which 50% of the phenyl-para-quinone induced writhing is inhibited, read-out: ED₅₀
Source text: The compounds of the present invention are also useful as analgesic agents due to this ability to alleviate pain in mammals. […] Exptl. Biol. Med., 95, 729 (1957)].
The analgesic activity of some of the compounds expressed as either the subcutaneous dose at which 50% of the phenyl-para-quinone induced writhing is inhibited in the animals, i.e., the ED₅₀ value, or as the % decrease in writhing at a given dose is presented in Table 2.

[2] = system: naja naja (snake venom) phospholipase A₂(PLA₂)-induced paw edema; assay: Phospholipase A2-Induced Paw Edema (PIPE); type: in vivo, male Wistar rats; settings: for PIPE 0.1 M: 0.1 M test compound injected with PLA2 (3 units/paw) in the subplantar region of the rat left hindpaw, paw displacement at two hours; for ED₅₀: standards of the PIPE assay, PLA2-induced rat paw edema
Method: Phospholipase A₂-Induced Paw Edema (PIPE)
The ability of compounds to reverse naja naja (snake venom) phospholipase A₂(PLA₂)-induced paw edema in male Wistar rats (100-125 gm) was measured. PLA₂ (3 units/100 »l dH₂O/paw) alone or with 0.1 M of the test compound was injected in the sulplantar region of the rat left hindpaw. Immediatly following injection and at two hours post administration, the paw was immersed in a mercury bath, and paw displacement was measured on a recorder via a transducer. The value was then converted to […]. (Standards: Quinacrine ED₅₀ = 0.1 M; Hydrocortisone ED₅₀= 0.46 M). Giessler, A.J. et al., "Agents and Action", Vol. 10, "Trends in Inflammation Research" (1981), p. 195.

[3] = system: arachidonic acid-induced ear edema; assay: Arachidonic Acid-Induced Mouse Ear Edema (AAEE); type: in vivo, female Swiss Webster mice; settings: 1 mg/ear topical, 30 minutes before arachidonic acid 4 mg/ear; ear plug weight one hour later, relative to control
Method: Arachidonic Acid-Induced Mouse Ear Edema (AAEE)
In the arachidonic acid-induced ear edema assay, the test compound is dissolved in 30/70 propylene glycol/ethanol and is applied to both ears of groups of 6 female Swiss Webster mice at a volume of 20 »l so that a total of 1.0 mg of test compound as delivered to each ear over the inner and outer surfaces. The mice were housed together in a cage under standard conditions for 1 week prior to use with food and water ad lib. The same volume (20 »l) of vehicle is applied to each ear of a control group of mice. After 30 minutes, arachidonic acid is applied to the right ear of each mouse of each group in the amount of 4 mg/ear. Vehicle is applied to the left ear of each mouse of each group at a volume of 20 »l/ear. After an additional hour, the mice are sacrificed and a 4mm plug is taken from each ear and weighed. The difference between the right and left ear plugs was determined for each animal. The antiinflammatory activity of the test compound is expressed as the mean percent change in the ear plug weight of the treated animals relative to the mean percent change in weights of control animals' ear. (Standard: Indomethacin -90% at 1 mg/ear). Young, J.M. et al., Invest. Dermatol., 80, (1983), pp. 48-52.

TPA-induced ear edema = assay: TPA-Induced Ear Edema (TPAEE); type: in vivo, female Swiss Webster mice; settings: for TPAEE 10 »g/ear: 10 »g/ear compound topical with 10 »g TPA, ear plug weight after about 5 hours, mean percent change versus control
Method: TPA-Induced Ear Edema (TPAEE)
In the TPA-induced ear edema assay, TPA (12-0-tetradecanoyl-phorbol-13-acetate) is dissolved in 30/70 propylene glycol/ethanol and is applied to the right ear of groups of 6 female Swiss Webster mice at a volume of 20 »l so that a total of 10 »g of TPA is delivered to the inner and outer surfaces of the ear. The mice were housed together in a cage under standard conditions for 1 week prior to use with food and water ad lib. The test compound is dissolved in the vehicle and is applied to the right ear (the inner and outer surfaces) at a volume of 20 »l so that a total of 10 »g of the compound is delivered to the ear. After about 5 hours, the animals are sacrificed and a 4 mm diameter plug is taken from each ear and weighed. The difference between the right and left ear plug weights for each animal was determined. The antiinflammatory activity of the test compound is expressed as the mean percent change in ear plug weight of the treated animals compared to the mean percent change in the plug weight of the control animals. (Standard: Indomethacin: -86% at 1 mg/ear). Young, J.M. et al., J. Invest. Dermatol., 80 (1983), pp. 48-52.

| Structure (SMILES) | PIPE 0.1 M [2] | AAEE % Change @ 1 mg/ear [3] | TPAEE 10 »g/ear (TPA-induced ear edema) | further results |
| --- | --- | --- | --- | --- |
| CCN(O)C(=O)C(C)c1ccc2c(c1)C(=O)c1ccccc1CO2 (centres unmarked) [2-(6,11-Dihydro-11-oxodibenz[b,e,]oxepin-2-yl]-N-ethyl-N-hydroxypropanamide] |  |  |  | ED50 [1]: 3.6 mg/kg |
| CN(O)CCc1ccc2c(c1)C(=O)c1ccccc1CO2 [2-(6,11-Dihydro-11-oxodibenz[b,e]oxepin-2-yl)-N-hydroxy-N-methyl-ethylamine] | -70 | -46% | -50 |  |
| O=C1c2ccccc2COc2ccc(CCC(=O)N(O)C3CCCCC3)cc21 [3-(6,11-Dihydro-11-oxodibenz[b,e]oxepin-2-yl)-N-cyclohexyl-N-hydroxypropanamide] |  |  |  | inhibition at 20 mg/kg [1]: 76% |
| CN(O)C(=O)CCc1ccc2c(c1)C(=O)c1ccccc1CO2 [3-(6,11-Dihydro-11-oxodibenz[b,e]oxepin-2-yl)-N-hydroxy-N-methylpropanamide] | -46 | -63% | -71 |  |
| C[C@]12CCC(=O)C=C1CC[C@@H]1[C@@H]2[C@@H](O)C[C@@]2(C)[C@H]1CC[C@]2(O)C(=O)CO [Hydrocortisone, reference compound] |  |  |  | ED₅₀ [2]: 0.46 M |
| COc1ccc2c(c1)c(CC(=O)O)c(C)n2C(=O)c1ccc(Cl)cc1 [Indomethacin, reference compound] |  | -90% |  | TPAEE percent change in ear plug weight (TPA-induced ear edema; standard, at 1 mg/ear): -86% |
| O=C1c2ccccc2COc2ccc(CC(=O)N(O)C3CCCCC3)cc21 [N-Cyclohexyl-2-(6,11-dihydro-11-oxodibenz[b,e]oxepin-2-yl)-N-hydroxyacetamide] | -85 | -29% | -52 | inhibition at 20 mg/kg [1]: 68% |
| CCC(=O)O[C@](Cc1ccccc1)(c1ccccc1)[C@H](C)CN(C)C [Propoxyphene, reference compound] |  |  |  | ED50 [1]: 3.9 mg/kg |
| CCN(CC)CCCC(C)Nc1c2ccc(Cl)cc2nc2ccc(OC)cc12 (centres unmarked) [Quinacrine, reference compound] |  |  |  | ED₅₀ [2]: 0.1 M |
